Laboratory results as given in patent US20210255193A1, “LYSINE REACTIVE PROBES AND USES THEREOF” (The Scripps Research Institute, priority 2017, published 2021).

Legend:
Assay in all cases: competitive isoTOP-ABPP
Format in all cases: binding
[1] = target: T1, KIAA1033 WASH complex subunit 7 (Homo sapiens, UniProt Q2M389); details: for isoTOP-ABPP reactivity ratio at lysine Q2M389_K302 / isoTOP-ABPP ratio (R) at liganded lysine Q2M389_K302: 50 uM, in vitro; for isoTOP-ABPP reactivity ratio at lysine Q2M389_K302: 231 sol; for isoTOP-ABPP ratio (R) at liganded lysine Q2M389_K302: sol, 231
T1 construct: isoTOP-ABPP experiments performed in cell lysates (in vitro); endogenous in cells; host or cells: soluble proteome of human cancer cell lines (MDA-MB-231; Ramos and Jurkat also prepared)
T1 sequence (Q2M389 1-1173): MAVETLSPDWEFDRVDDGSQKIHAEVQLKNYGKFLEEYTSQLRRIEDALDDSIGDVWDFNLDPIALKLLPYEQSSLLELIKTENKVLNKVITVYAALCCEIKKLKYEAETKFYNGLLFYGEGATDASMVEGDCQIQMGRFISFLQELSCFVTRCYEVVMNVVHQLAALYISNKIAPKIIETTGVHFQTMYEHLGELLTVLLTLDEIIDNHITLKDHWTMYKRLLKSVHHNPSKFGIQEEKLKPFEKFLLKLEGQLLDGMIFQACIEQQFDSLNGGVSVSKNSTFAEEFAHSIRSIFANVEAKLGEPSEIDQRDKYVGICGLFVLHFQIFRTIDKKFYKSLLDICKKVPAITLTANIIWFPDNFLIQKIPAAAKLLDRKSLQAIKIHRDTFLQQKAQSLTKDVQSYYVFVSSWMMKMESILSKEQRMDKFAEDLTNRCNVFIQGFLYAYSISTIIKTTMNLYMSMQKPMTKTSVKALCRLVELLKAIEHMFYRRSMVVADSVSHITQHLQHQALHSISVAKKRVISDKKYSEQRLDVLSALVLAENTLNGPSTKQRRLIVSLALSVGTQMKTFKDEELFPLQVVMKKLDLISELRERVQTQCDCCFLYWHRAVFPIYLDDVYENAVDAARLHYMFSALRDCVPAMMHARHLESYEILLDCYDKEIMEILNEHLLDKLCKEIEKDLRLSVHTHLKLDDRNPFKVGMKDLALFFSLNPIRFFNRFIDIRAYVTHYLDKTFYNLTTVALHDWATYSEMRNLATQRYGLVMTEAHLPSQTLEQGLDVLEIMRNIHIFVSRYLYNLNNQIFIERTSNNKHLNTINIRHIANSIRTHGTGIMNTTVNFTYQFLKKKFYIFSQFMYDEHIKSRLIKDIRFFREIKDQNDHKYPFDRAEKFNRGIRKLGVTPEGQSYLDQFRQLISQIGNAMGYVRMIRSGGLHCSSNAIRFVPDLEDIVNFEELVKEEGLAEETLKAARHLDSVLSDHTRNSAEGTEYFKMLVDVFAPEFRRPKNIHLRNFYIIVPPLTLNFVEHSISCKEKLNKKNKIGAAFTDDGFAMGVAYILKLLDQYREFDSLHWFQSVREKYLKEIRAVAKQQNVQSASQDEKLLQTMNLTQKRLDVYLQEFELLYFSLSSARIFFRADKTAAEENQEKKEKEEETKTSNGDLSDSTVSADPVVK
Summary of the method: (§1)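 Cell lysate (0.5 ml) was pre-treated with fragment, 50 μM for activated esters or 100 μM for guanidinylating agents, versus DMSO, then labeled 1 h at ambient temperature with 0.1 mM STP-alkyne. Light/heavy TEV tags attached by CuAAC; R = DMSO/compound MS1 peak-area ratio, median per lysine.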

[2] = target: T2, TSTA3 GDP-L-fucose synthase (Homo sapiens, UniProt Q13630); details: for isoTOP-ABPP reactivity ratio at lysine Q13630_K108 / isoTOP-ABPP ratio (R) at liganded lysine Q13630_K108: 50 uM, in vitro; for isoTOP-ABPP reactivity ratio at lysine Q13630_K108: 231 sol; for isoTOP-ABPP ratio (R) at liganded lysine Q13630_K108: sol, 231
T2 construct: isoTOP-ABPP experiments performed in cell lysates (in vitro); endogenous in cells; host or cells: soluble proteome of human cancer cell lines (MDA-MB-231, Ramos, Jurkat)
Summary of the method: as §1

[3] = target: T3, GABARAPL2 Gamma-aminobutyric acid receptor-associated protei (Homo sapiens, UniProt P60520); details: for isoTOP-ABPP reactivity ratio at lysine P60520_K46 / isoTOP-ABPP ratio (R) at liganded lysine P60520_K46: 50 uM, in vitro; for isoTOP-ABPP reactivity ratio at lysine P60520_K46: 231 sol; for isoTOP-ABPP ratio (R) at liganded lysine P60520_K46: sol, 231
T3 construct: isoTOP-ABPP experiments performed in cell lysates (in vitro); endogenous in cells; host or cells: soluble proteome of human cancer cell lines (MDA-MB-231, Ramos, Jurkat)
Summary of the method: as §1

[4] = target: T4, IMPDH1 Inosine-5-monophosphate dehydrogenase 1 (Homo sapiens, UniProt P20839); details: for isoTOP-ABPP reactivity ratio at lysine P20839_K208 / isoTOP-ABPP ratio (R) at liganded lysine P20839_K208: 50 uM, in vitro; for isoTOP-ABPP reactivity ratio at lysine P20839_K208: 231 sol; for isoTOP-ABPP ratio (R) at liganded lysine P20839_K208: sol, 231
T4 construct: isoTOP-ABPP experiments performed in cell lysates (in vitro); endogenous in cells; host or cells: soluble proteome of human cancer cell lines (MDA-MB-231; Ramos and Jurkat also prepared)
Summary of the method: as §1

T2 sequence (Q13630 whole entry): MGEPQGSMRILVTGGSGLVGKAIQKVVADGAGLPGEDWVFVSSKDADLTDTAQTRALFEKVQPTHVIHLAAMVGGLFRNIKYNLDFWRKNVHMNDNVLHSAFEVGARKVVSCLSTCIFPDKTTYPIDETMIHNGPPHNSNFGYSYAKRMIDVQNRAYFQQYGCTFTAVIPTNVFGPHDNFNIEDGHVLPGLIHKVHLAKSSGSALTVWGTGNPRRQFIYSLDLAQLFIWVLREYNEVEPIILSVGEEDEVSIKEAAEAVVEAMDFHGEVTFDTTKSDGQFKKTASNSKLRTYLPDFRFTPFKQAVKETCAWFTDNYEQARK
T3 sequence (P60520 1-116 limits assumed): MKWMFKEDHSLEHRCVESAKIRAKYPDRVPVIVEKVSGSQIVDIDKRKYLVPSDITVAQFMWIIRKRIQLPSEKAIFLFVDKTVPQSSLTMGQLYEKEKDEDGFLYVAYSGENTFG
T4 sequence (P20839 whole entry): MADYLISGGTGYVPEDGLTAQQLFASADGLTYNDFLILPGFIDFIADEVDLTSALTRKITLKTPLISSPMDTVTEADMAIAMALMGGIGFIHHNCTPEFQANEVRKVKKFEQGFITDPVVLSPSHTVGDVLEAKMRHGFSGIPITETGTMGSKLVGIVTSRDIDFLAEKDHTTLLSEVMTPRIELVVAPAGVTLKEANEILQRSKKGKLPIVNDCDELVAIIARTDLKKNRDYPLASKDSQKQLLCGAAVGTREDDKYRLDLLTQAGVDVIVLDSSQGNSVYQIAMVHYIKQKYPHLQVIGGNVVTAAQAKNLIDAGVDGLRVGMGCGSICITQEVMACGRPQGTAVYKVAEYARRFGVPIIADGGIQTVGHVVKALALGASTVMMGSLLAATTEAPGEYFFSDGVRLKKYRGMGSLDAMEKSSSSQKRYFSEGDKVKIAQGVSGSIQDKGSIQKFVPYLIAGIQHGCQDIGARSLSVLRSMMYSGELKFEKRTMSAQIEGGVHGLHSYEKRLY

O=C(CCc1cn(-c2ccccc2)nc1-c1ccccc1)Oc1ccc([N+](=O)[O-])cc1[N+](=O)[O-] [fragment 29, 2,4-Dinitrophenyl 3-(1,3-diphenyl-1H-pyrazol-4-yl)propanoate]
isoTOP-ABPP reactivity ratio at lysine Q2M389_K302 [1]: 1.1 | isoTOP-ABPP reactivity ratio at lysine Q13630_K108 [2]: 1.1 | isoTOP-ABPP reactivity ratio at lysine P60520_K46 [3]: 0.9 | isoTOP-ABPP reactivity ratio at lysine P20839_K208 [4]: 1.3

COc1cc(CCC(=O)Oc2ccc([N+](=O)[O-])cc2[N+](=O)[O-])cc(OC)c1OC [fragment 33, 2,4-Dinitrophenyl 3-(3,4,5-trimethoxyphenyl)propanoate]
isoTOP-ABPP reactivity ratio at lysine Q2M389_K302 [1]: 0.9 | isoTOP-ABPP reactivity ratio at lysine Q13630_K108 [2]: 1.2 | isoTOP-ABPP reactivity ratio at lysine P60520_K46 [3]: 1.2 | isoTOP-ABPP reactivity ratio at lysine P20839_K208 [4]: 1.2

O=C(Oc1ccc([N+](=O)[O-])cc1[N+](=O)[O-])c1ccc(-c2ccccc2)cc1 [fragment 37, 2,4-Dinitrophenyl [1,1′-biphenyl]-4-carboxylate]
isoTOP-ABPP ratio (R) at liganded lysine Q2M389_K302 [1]: 0.9 | isoTOP-ABPP ratio (R) at liganded lysine Q13630_K108 [2]: 2.9 | isoTOP-ABPP ratio (R) at liganded lysine P60520_K46 [3]: 0.8 | isoTOP-ABPP ratio (R) at liganded lysine P20839_K208 [4]: 1.4

CC(C)(C)OC(=O)NCCCC(=O)Oc1ccc([N+](=O)[O-])cc1[N+](=O)[O-] [fragment 41, 2,4-Dinitrophenyl 4-((tert-butoxycarbonyl)amino)butanoate]
isoTOP-ABPP ratio (R) at liganded lysine Q2M389_K302 [1]: 1.5 | isoTOP-ABPP ratio (R) at liganded lysine Q13630_K108 [2]: 1.3 | isoTOP-ABPP ratio (R) at liganded lysine P60520_K46 [3]: 1.0 | isoTOP-ABPP ratio (R) at liganded lysine P20839_K208 [4]: 1.2

O=C(CCc1ccc2c(c1)OCO2)Oc1ccc([N+](=O)[O-])cc1[N+](=O)[O-] [fragment 45, 2,4-Dinitrophenyl 3-(benzo[d][1,3]dioxol-5-yl)propanoate]
isoTOP-ABPP ratio, lysine Q2M389_K302 ([1]; 50 uM_231_sol_in vitro): 1.2 | isoTOP-ABPP ratio, lysine Q13630_K108 ([2]; 50 uM_231_sol_in vitro): 20.0 | isoTOP-ABPP ratio, lysine P60520_K46 ([3]; 50 uM_231_sol_in vitro): 1.0 | isoTOP-ABPP ratio, lysine P20839_K208 ([4]; 50 uM_231_sol_in vitro): 1.5

CC(C)(C)OC(=O)N=C(NC(=O)OC(C)(C)C)n1cccn1 [fragment 50, reference compound]
isoTOP-ABPP ratio, lysine Q2M389_K302 ([1]; 100 uM_231_sol_in vitro): 5.3 | isoTOP-ABPP ratio, lysine Q13630_K108 ([2]; 100 uM_231_sol_in vitro): 1.0 | isoTOP-ABPP ratio, lysine P60520_K46 ([3]; 100 uM_231_sol_in vitro): 20.0 | isoTOP-ABPP ratio, lysine P20839_K208 ([4]; 100 uM_231_sol_in vitro): 20.0
